Reference: PubChem BioAssay (NCI)
“And” between values parts separate entries of the source, which are not always exact repeats. Equal values may be shown once.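 Protocol summary: plate cells (96-well), add compound at 5 concentrations, incubate 48 h, interpolate endpoints linearly. GI50 marks 50% less growth. TGI denotes the concentration required for complete inhibition of growth.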

What was measured:
Assay in all cases: growth of human tumour cells (NCI), 48 h
ACHN renal = tested on: ACHN renal
CCRF-CEM leukemia = tested on: CCRF-CEM leukemia
COLO 205 colon = tested on: COLO 205 colon
HCC-2998 colon = tested on: HCC-2998 colon
HOP-62 NSCLC = tested on: HOP-62 NSCLC
IGROV1 ovarian = tested on: IGROV1 ovarian
OVCAR-5 ovarian = tested on: OVCAR-5 ovarian
UO-31 renal = tested on: UO-31 renal
PC-3 prostate = tested on: PC-3 prostate
T-47D breast = tested on: T-47D breast

SMILES | TGI (ACHN renal) | TGI (CCRF-CEM leukemia) | TGI (COLO 205 colon) | TGI (HCC-2998 colon) | TGI (HOP-62 NSCLC) | TGI (IGROV1 ovarian) | TGI (OVCAR-5 ovarian) | TGI (UO-31 renal) | TGI (PC-3 prostate) | GI50 (ACHN renal) | GI50 (CCRF-CEM leukemia) | GI50 (COLO 205 colon) | GI50 (HCC-2998 colon) | GI50 (HOP-62 NSCLC) | GI50 (IGROV1 ovarian) | GI50 (OVCAR-5 ovarian) | GI50 (T-47D breast) | TGI (T-47D breast) | GI50 (UO-31 renal) | GI50 (PC-3 prostate)
CN(C)C(=S)/N=c1\ss/c(=N\C(=S)N(C)C)n1-c1cccc(Cl)c1 | > 100 µM | > 100 µM | > 100 µM | > 100 µM | > 100 µM | > 100 µM | > 100 µM | > 100 µM |  |  |  |  |  |  |  |  |  |  |  | 
COc1ccc(-c2nc3ccccc3s2)cc1OC | > 100 µM | > 100 µM | > 100 µM |  | > 100 µM |  | > 100 µM | > 100 µM | > 100 µM |  |  |  |  |  |  |  |  |  |  | 
O=C(CC1=Nc2nnc(CCCCCCCc3nnc4n3C(=O)C(CC(=O)c3ccc5ccccc5c3)=N4)n2C1=O)c1ccc2ccccc2c1 | > 100 µM | > 100 µM | > 100 µM | > 100 µM | > 100 µM | > 100 µM | > 100 µM | > 100 µM |  |  |  |  |  |  |  |  |  |  |  | 
CCCC(=O)O[C@]1(C)CC[C@@H]2[C@H]3[C@@H]1[C@@H]1C[C@@](C)(O)[C@H](OC)CC[C@](C)(OC(=O)[C@@H]2C)[C@H]3O1 | > 100 µM | 13.9 µM | > 100 µM | 31.2 µM | > 100 µM | 62 µM | > 100 µM | > 100 µM |  | 35.8 µM | 2.35 µM | 33.7 µM | 17.5 µM | 82.7 µM | 24.9 µM | 58.9 µM | 21.6 µM | 44.5 µM | 40.4 µM | 
COC(=O)C1CC(c2ccc(OC)c(OC)c2)OC1=O (mixture of isomers) | > 100 µM | > 100 µM | > 100 µM | > 100 µM | > 100 µM | > 100 µM | > 100 µM | > 100 µM |  |  |  |  |  |  |  |  |  |  |  | 
c1ccc2c(c1)[nH]c1c2nc2ccccn21 | > 100 µM | > 100 µM | > 100 µM | > 100 µM | > 100 µM | > 100 µM | > 100 µM | > 100 µM |  |  | 48.4 µM and > 100 µM |  |  |  |  |  |  |  |  | 
CC(=O)[CH-]C(C)=O.CC(=O)[CH-]C(C)=O.[O-]c1ccccc1.[O-]c1ccccc1.[Ti+4] | > 100 µM | > 100 µM | > 100 µM | > 100 µM |  | > 100 µM | > 100 µM | > 100 µM |  | > 100 µM | > 100 µM | > 100 µM | > 100 µM |  | > 100 µM | > 100 µM |  |  | > 100 µM | 
Cc1cc(Cl)ccc1NC(=O)CCCC(=O)C1C/C(=N/O)CC/C1=N\O (stereo unspecified) | > 100 µM | > 100 µM | > 100 µM | > 100 µM | > 100 µM | > 100 µM | > 100 µM | > 100 µM |  |  |  |  |  |  |  |  |  |  |  | 
O=c1c(Cc2ccc3c(c2)OCO3)nnc2sc(-c3cc(F)c(Cl)cc3Cl)nn12 | > 100 µM | > 100 µM | 59.2 µM |  | 64.7 µM | > 100 µM | > 100 µM | > 100 µM | > 100 µM | 53.8 µM | 33.9 µM | 22.6 µM |  | 18.1 µM | 32.3 µM | 46.6 µM |  |  | 50.2 µM | 35.4 µM
Cc1n[nH]c2ccccc2c1=O | > 100 µM |  | > 100 µM |  | > 100 µM | > 100 µM | > 100 µM | > 100 µM | > 100 µM |  |  |  |  |  |  |  |  | > 100 µM |  | 
Cn1c(=O)oc2cc(C3CCC(=O)N3Cc3csc(-c4ccccc4)n3)ccc21 (stereo unspecified) | > 100 µM | > 100 µM | > 100 µM | > 100 µM | > 100 µM | > 100 µM | > 100 µM | > 100 µM |  |  |  |  |  |  |  |  |  |  |  | 
CC(=O)N1[C@H](C(=O)O)CS[C@H]1c1ccc(F)cc1 | > 100 µM | > 100 µM | > 100 µM | > 100 µM | > 100 µM | > 100 µM | > 100 µM | > 100 µM |  |  |  |  |  |  |  |  |  |  |  | 
CC(C)(C)C#COC(=O)c1ccccc1 | > 100 µM | > 100 µM | > 100 µM | > 100 µM | > 100 µM | > 100 µM | > 100 µM | > 100 µM |  |  |  |  |  |  |  |  |  |  |  | 
O=c1c2cccnc2ncn1CCCN1CCCCC1 | > 100 µM | > 100 µM | > 100 µM |  | > 100 µM | > 100 µM | > 100 µM | > 100 µM |  |  |  |  |  |  |  |  |  |  |  | 
COc1ccc(-c2ccc(CC(=O)O)cc2)cc1OC | > 100 µM | > 100 µM | > 100 µM |  | > 100 µM |  | > 100 µM | > 100 µM |  |  |  |  |  |  |  |  |  |  |  | 
O=C1NC(O)n2c(=O)[nH]c(=O)n21 (stereo unspecified) | > 100 µM | > 100 µM | > 100 µM | > 100 µM | > 100 µM | > 100 µM | > 100 µM | > 100 µM |  |  |  |  |  |  |  |  |  |  |  | 

SMILES | TGI (ACHN renal) | TGI (CCRF-CEM leukemia) | TGI (COLO 205 colon) | TGI (HCC-2998 colon) | TGI (HOP-62 NSCLC) | TGI (IGROV1 ovarian) | TGI (OVCAR-5 ovarian) | TGI (UO-31 renal) | TGI (PC-3 prostate) | GI50 (ACHN renal) | GI50 (CCRF-CEM leukemia) | GI50 (COLO 205 colon) | GI50 (HCC-2998 colon) | GI50 (HOP-62 NSCLC) | GI50 (IGROV1 ovarian) | GI50 (OVCAR-5 ovarian) | GI50 (T-47D breast) | TGI (T-47D breast) | GI50 (UO-31 renal) | GI50 (PC-3 prostate)
COC(=O)C1C=CCC2CCCCC21N1CCCC1 (stereo unspecified) | > 100 µM | > 100 µM | > 100 µM | > 100 µM | > 100 µM | > 100 µM | > 100 µM | > 100 µM |  |  |  |  |  |  |  |  |  |  |  | 
C1=CC(=P(c2ccccc2)(c2ccccc2)c2ccccc2)C=C1 | 28.2 µM | 13.4 µM | 14.8 µM | 24.3 µM | 41.6 µM | 24.6 µM | 28.6 µM | 30.8 µM |  |  |  |  |  |  |  |  |  |  |  | 
OCC(O)C(O)C(O)C(/C=N\Nc1ncnc2c(Br)cc(Br)cc12)=N/Nc1ncnc2c(Br)cc(Br)cc12 (stereo unspecified) | 33 µM and > 100 µM |  | 13 µM and 22 µM |  |  | 10.1 µM and > 100 µM | 46.1 µM and > 100 µM | 54.2 µM and > 100 µM | 13 µM and > 100 µM |  |  |  |  | 2.05 µM and 9.09 µM |  | 5.83 µM and 41.2 µM |  |  | 21.7 µM and > 100 µM | 
Cc1c(C)c([N+](=O)[O-])c2c(c1N)C(=O)c1ccccc1C2=O | > 100 µM | > 100 µM | > 100 µM | > 100 µM | > 100 µM | > 100 µM | > 100 µM | > 100 µM |  |  |  |  |  |  |  |  |  |  |  | 
O=c1c(Cc2ccccc2)c(O)cc2n1CCC2 | > 100 µM | > 100 µM | > 100 µM | > 100 µM | > 100 µM | > 100 µM | > 100 µM | > 100 µM |  |  |  |  |  |  |  |  |  |  |  | 
Cc1cc2c(c(C(=O)O)c1C)-c1cccc(Cl)c1C2=O | > 100 µM | > 100 µM | > 100 µM | > 100 µM | > 100 µM | > 100 µM | > 100 µM | > 100 µM |  |  |  |  |  |  |  |  |  |  |  | 
CCOc1ccc(NC(=O)/C(CC(=O)c2c[n+](=O)c3ccccc3n2[O-])=N\OCCCc2ccccc2)cc1 | > 100 µM | > 100 µM | > 100 µM | > 100 µM | > 100 µM | > 100 µM | > 100 µM | > 100 µM |  |  |  |  |  |  |  |  |  |  |  | 
CN1CCCC2[C@@H]3CCC4c5nonc5CC[C@]4(C)C3CC[C@@]21C (stereo partly specified) | > 100 µM |  | > 100 µM |  |  | > 100 µM | > 100 µM | > 100 µM |  |  |  |  |  |  |  |  |  |  |  | 
CC(=O)Nc1ccc(C2CC(c3ccc([N+](=O)[O-])cc3)=Nc3ccccc3S2)cc1 (stereo unspecified) | 32.1 µM | 56 µM | > 100 µM |  | 50.8 µM | 67.2 µM | 41.5 µM | 27.8 µM |  |  |  |  |  |  |  |  |  |  |  | 
COc1cc(C)c2c(c1)CN1CN2Cc2cc(OC)cc(C)c21 | > 100 µM | > 100 µM | > 100 µM |  | > 100 µM | > 100 µM | > 100 µM | 85.5 µM |  |  |  |  |  |  |  |  |  |  |  | 
COc1cc2c(/C=C3\C(=O)Nc4ccccc43)c[nH]c2cc1C | 4.51 µM | 0.0734 µM | 4.39 µM | 0.167 µM | 10.7 µM |  | 19.1 µM | > 40.8 µM | 13.2 µM | 1.64 µM | 0.0196 µM | 0.118 µM | < 0.0179 µM | < 0.01 µM |  | 0.62 µM |  |  | 2.87 µM | 0.213 µM
COc1cc2c(cc1OCCNC(=O)/C=C1\C[C@H]3C=Nc4cc(OCc5ccccc5)c(OC)cc4C(=O)N3C1)N=C[C@@H]1CCCN1C2=O | 71.5 µM |  | 68.5 µM |  | 23.6 µM | 5.64 µM | 26.3 µM | 66.1 µM | 33.7 µM | 25.8 µM |  | 14.9 µM |  | 4.27 µM | 1.42 µM | 4.07 µM | 2.77 µM | 55.9 µM | 22.9 µM | 3.53 µM
COC1=CC(c2ccc[nH]2)=N/C1=C\c1[nH]c(C)c(C(=O)CCCCCCCCC(=O)O[C@H]2CC[C@H]3C4CCc5cc(O)ccc5C4CC[C@]23C)c1C (stereo partly specified) | > 50 µM | > 50 µM | > 50 µM | > 50 µM | 10.2 µM | > 50 µM | > 50 µM | 5.3 µM | > 50 µM | 1.16 µM | 0.117 µM | 0.332 µM | 0.623 µM | 0.483 µM | 1.06 µM | 1.24 µM |  |  | 1.18 µM | 0.327 µM
CCCCCCCC(=O)OCC/C=C/C1OC1C1OC(=O)/C=C\C=C\C(=O)N(C(C)=O)C(=O)/C=C(/C)CCC2OC2C1OC(=O)NC(C)=O (stereo unspecified) | 9.94 µM | > 25 µM | 6.86 µM | 19.1 µM | > 25 µM | 8.28 µM | 11.5 µM | 10.8 µM | 8.04 µM | 2.14 µM | 0.734 µM | 3.27 µM | 7.35 µM | 7.45 µM | 3.21 µM | 4.88 µM |  |  | 1.82 µM | 3.15 µM
CSc1nc(Nc2cccc(NC(=O)CCl)c2)c(C#N)c(-c2cccc([N+](=O)[O-])c2)n1 | 1.91 µM | > 100 µM | 3.54 µM | 4.37 µM | 11.4 µM | 0.685 µM | 6.13 µM | 5.73 µM | 3.73 µM | 0.534 µM | 0.34 µM | 1.82 µM | 2.07 µM | 2.55 µM | 0.214 µM | 2.45 µM |  |  | 1.62 µM | 1.61 µM
